Reference: PubChem BioAssay (NCI)
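The concentration for 50% growth inhibition is given as GI50. TGI is the concentration that stops growth completely.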

Tests used:
Assay in all cases: DTP human tumour cell line panel, 384-well format; in the data active = GI50 below about 0.43 µM; inactive = the rest
UACC-62 melanoma = test system: UACC-62 melanoma
PC-3 prostate = test system: PC-3 prostate
EKVX NSCLC = test system: EKVX NSCLC
SN12C renal = test system: SN12C renal
NCI-H460 NSCLC = test system: NCI-H460 NSCLC
HL-60(TB) leukemia = test system: HL-60(TB) leukemia
SF-539 CNS = test system: SF-539 CNS
A549 NSCLC = test system: A549 NSCLC
UO-31 renal = test system: UO-31 renal
SF-268 CNS = test system: SF-268 CNS
CAKI-1 renal = test system: CAKI-1 renal
HCC-2998 colon = test system: HCC-2998 colon
MOLT-4 leukemia = test system: MOLT-4 leukemia
COLO 205 colon = test system: COLO 205 colon
SW-620 colon = test system: SW-620 colon
HS 578T breast = test system: HS 578T breast
MCF7 breast = test system: MCF7 breast
SNB-19 CNS = test system: SNB-19 CNS
DU-145 prostate = test system: DU-145 prostate
A498 renal = test system: A498 renal
IGROV1 ovarian = test system: IGROV1 ovarian
U251 glioblastoma = test system: U251 glioblastoma
ACHN renal = test system: ACHN renal
HCT-15 colon = test system: HCT-15 colon
MALME-3M melanoma = test system: MALME-3M melanoma
MDA-MB-231 breast = test system: MDA-MB-231 breast
TK-10 renal = test system: TK-10 renal
NCI-H226 lung = test system: NCI-H226 lung
CCRF-CEM leukemia = test system: CCRF-CEM leukemia
SK-MEL-5 melanoma = test system: SK-MEL-5 melanoma
HCT-116 colon = test system: HCT-116 colon
NCI-H522 lung = test system: NCI-H522 lung
T-47D breast = test system: T-47D breast
BT-549 breast = test system: BT-549 breast
SR leukemia = test system: SR leukemia
KM12 colon = test system: KM12 colon
NCI/ADR-RES ovarian = test system: NCI/ADR-RES ovarian
OVCAR-3 ovarian = test system: OVCAR-3 ovarian
UACC-257 melanoma = test system: UACC-257 melanoma
SK-MEL-2 melanoma = test system: SK-MEL-2 melanoma
M14 melanoma = test system: M14 melanoma
LOX IMVI melanoma = test system: LOX IMVI melanoma
NCI-H23 lung = test system: NCI-H23 lung
RXF 393 renal = test system: RXF 393 renal
OVCAR-4 ovarian = test system: OVCAR-4 ovarian
RPMI-8226 leukemia = test system: RPMI-8226 leukemia
HT29 colon = test system: HT29 colon

CS(=O)(=O)c1ccc(C(=O)Nc2ccc(Cl)c(-c3ccccn3)c2)c(Cl)c1
> 83.8 µM: TGI (CAKI-1 renal)
46.3 µM: TGI (MOLT-4 leukemia)
50 µM: TGI (CCRF-CEM leukemia)
61.2 µM: TGI (MALME-3M melanoma)
> 86.8 µM: TGI (DU-145 prostate)
> 84 µM: TGI (HS 578T breast)
50.6 µM: TGI (SR leukemia)
56.8 µM: TGI (HCC-2998 colon)
64.3 µM: TGI (NCI-H226 lung)
> 84.5 µM: TGI (OVCAR-4 ovarian)
> 89.7 µM: TGI (UACC-257 melanoma)
49.1 µM: TGI (HL-60(TB) leukemia)
76.9 µM: TGI (BT-549 breast)
> 81.7 µM: TGI (ACHN renal)
> 90.5 µM: TGI (EKVX NSCLC)
> 100 µM: TGI (PC-3 prostate) | TGI (SN12C renal) | TGI (SF-539 CNS) | TGI (A549 NSCLC) | TGI (SF-268 CNS) | TGI (COLO 205 colon) | TGI (SW-620 colon) | TGI (SNB-19 CNS) | TGI (IGROV1 ovarian) | TGI (U251 glioblastoma) | TGI (MDA-MB-231 breast) | TGI (TK-10 renal) | TGI (HCT-116 colon) | TGI (NCI-H522 lung) | TGI (SK-MEL-2 melanoma) | TGI (M14 melanoma) | TGI (LOX IMVI melanoma) | TGI (NCI-H23 lung)
36.7 µM: TGI (HT29 colon)
61.5 µM: TGI (RPMI-8226 leukemia)
> 80.3 µM: TGI (UO-31 renal)
inactive: GI50 (UACC-62 melanoma) 44.4 µM | GI50 (PC-3 prostate) 55 µM | GI50 (EKVX NSCLC) 48.3 µM | GI50 (SN12C renal) > 68.8 µM | GI50 (NCI-H460 NSCLC) 30.8 µM | GI50 (HL-60(TB) leukemia) 19.6 µM | GI50 (SF-539 CNS) 49.1 µM | GI50 (A549 NSCLC) 41.1 µM | GI50 (UO-31 renal) 35.4 µM | GI50 (SF-268 CNS) 45 µM | GI50 (CAKI-1 renal) 36.6 µM | GI50 (HCC-2998 colon) 24.6 µM | GI50 (MOLT-4 leukemia) 21.8 µM | GI50 (COLO 205 colon) 40.3 µM | GI50 (SW-620 colon) > 64 µM | GI50 (HS 578T breast) 27.6 µM | GI50 (MCF7 breast) 35.3 µM | GI50 (SNB-19 CNS) > 64.8 µM | GI50 (DU-145 prostate) 42.5 µM | GI50 (A498 renal) 31.9 µM | GI50 (IGROV1 ovarian) 56.6 µM | GI50 (U251 glioblastoma) 49.5 µM | GI50 (ACHN renal) 35.6 µM | GI50 (HCT-15 colon) 26.2 µM | GI50 (MALME-3M melanoma) 19 µM | GI50 (MDA-MB-231 breast) > 65.9 µM | GI50 (TK-10 renal) > 52.9 µM | GI50 (NCI-H226 lung) 22.9 µM | GI50 (CCRF-CEM leukemia) 19.9 µM | GI50 (SK-MEL-5 melanoma) 10.8 µM | GI50 (HCT-116 colon) 58.3 µM | GI50 (NCI-H522 lung) 46 µM | GI50 (T-47D breast) 21.4 µM | GI50 (BT-549 breast) 25.1 µM | GI50 (SR leukemia) 29 µM | GI50 (KM12 colon) 17.9 µM | GI50 (NCI/ADR-RES ovarian) 25.3 µM | GI50 (OVCAR-3 ovarian) 35.9 µM | GI50 (UACC-257 melanoma) 49.6 µM | GI50 (SK-MEL-2 melanoma) 33.8 µM | GI50 (M14 melanoma) 47.5 µM | GI50 (LOX IMVI melanoma) 47.2 µM | GI50 (NCI-H23 lung) > 61.2 µM | GI50 (RXF 393 renal) 22.7 µM | GI50 (OVCAR-4 ovarian) 32.6 µM | GI50 (RPMI-8226 leukemia) 25 µM | GI50 (HT29 colon) 18.3 µM
> 56.7 µM: TGI (KM12 colon)
59.7 µM: TGI (T-47D breast)
71.7 µM: TGI (NCI/ADR-RES ovarian)
> 70.3 µM: TGI (NCI-H460 NSCLC)
> 79.3 µM: TGI (UACC-62 melanoma)
> 83 µM: TGI (OVCAR-3 ovarian)
> 82.8 µM: TGI (MCF7 breast)
> 70.8 µM: TGI (HCT-15 colon)
> 71.7 µM: TGI (A498 renal)
51.9 µM: TGI (RXF 393 renal)
> 29.3 µM: TGI (SK-MEL-5 melanoma)
